Source: a melting point compilation (Tetko et al.)

First: Sc1nc(-c2cccs2)no1
Second: O=c1[nH]c(CCl)nc2scc(-c3cccs3)c12
The melting point of the first is lower: 108 to 110 °C for the first, 219 to 221 °C for the second.

First: CCCn1c(=O)[nH]c(=O)c2cc(C(=O)O)cnc21
Second: Cc1nc2c(cnn2C(C)C)cc1C(=O)O
The melting point of the first is higher: 235 to 237 °C for the first, 166 to 168 °C for the second.

First: O=C(O)c1cc2ccccc2c(OCC2CC2)n1
Second: N#CCn1c(C(=O)O)cc2ccccc21
The melting point of the first is lower: 177 to 179 °C for the first, 192 to 194 °C for the second.

First: COC(C)c1ncc(C(=O)O)s1 (stereo not drawn)
Second: COc1cc(C(=O)O)cc(OC)c1OC(F)F
The melting point of the first is lower: 131 to 133 °C for the first, 179 to 181 °C for the second.

First: CN(C)c1cc(C(F)(F)F)nc(Cl)n1
Second: Nc1nccc(C(F)(F)F)n1
The melting point of the first is lower: 106 to 108 °C for the first, 174 to 178 °C for the second.

First: CC1Cc2ccccc2N1S(=O)(=O)c1ccc(F)c(C(=O)O)c1 (stereo not drawn)
Second: O=C(O)c1ccc(O)c2ccccc12
The melting point of the first is higher: 200 to 202 °C for the first, 184 to 186 °C for the second.

First: Cc1noc2nc(C3CC3)cc(C(=O)O)c12
Second: Cc1[nH]ccc1C(=O)O
The melting point of the first is higher: 215 to 217 °C for the first, 167 to 169 °C for the second.

First: NCCNS(=O)(=O)c1cccc(Cl)c1
Second: CN(C)S(=O)(=O)c1cccc(S(=O)(=O)Cl)c1
The melting point of the first is lower: 84 to 86 °C for the first, 97 to 99 °C for the second.

First: Nc1ccc(SCc2cccnc2)cc1
Second: Nc1ccc(Oc2ccc(Cl)cc2)nc1
The melting point of the first is higher: 125 to 127 °C for the first, 89 to 91 °C for the second.

Compared with `Cc1nc(Cc2ccccn2)sc1C(=O)O`, `Cc1ccc(OCc2nc(C(=O)O)cs2)cc1` is higher in melting point: 189 to 191 °C for the first, 198 to 200 °C for the second.

First: CC(=O)Oc1ccc2ccc(O)cc2c1
Second: CC(C)(C)OC(=O)Nc1ccc(O)cc1
The melting point of the first is higher: 157 to 159 °C for the first, 131 to 133 °C for the second.

First: O=C1C(Br)CCN1c1ccc(Cl)cc1 (stereo not drawn)
Second: CC(Sc1ccc(Cl)cc1)C(=O)O (stereo not drawn)
The melting point of the first is lower: 83 to 85 °C for the first, 106 to 108 °C for the second.

First: NC(=O)CC(NC(=O)c1ccccc1Cl)C(=O)O (stereo not drawn)
Second: COc1ccccc1C(C)=CC(=O)O
The melting point of the first is higher: 190 to 192 °C for the first, 81 to 83 °C for the second.

First: CCCNS(=O)(=O)c1ccc(/C=C/C(=O)O)cc1
Second: O=C(O)C=Cc1ccc(S(=O)(=O)Nc2cccc(C(F)(F)F)c2)cc1
The melting point of the first is higher: 235 to 237 °C for the first, 224 to 226 °C for the second.

Compared with `COc1ccc(Br)nc1C(F)(F)F`, `Nc1nc2c(OCC(F)(F)F)cccc2s1` is higher in melting point: 32 to 34 °C for the first, 170 to 172 °C for the second.

First: O=c1[nH]cnc2sc3c(c12)CCCCC3
Second: CC(C)(C)C1CCc2c(sc3nc(S)nc(S)c23)C1 (stereo not drawn)
The melting point of the first is lower: 107 to 109 °C for the first, 301 to 303 °C for the second.

First: c1cnc2c(c1)NCCCN2
Second: CC1CCNc2ccccc2N1 (stereo not drawn)
The melting point of the first is lower: 84 to 86 °C for the first, 96 to 98 °C for the second.

Compared with `N#Cc1ccc(CNC(=O)CCl)cc1`, `CC(=O)c1ccc(OCC#N)cc1` is lower in melting point: 142 to 144 °C for the first, 82 to 84 °C for the second.

First: CNC(C)c1sc(-c2ccc(C)cc2)nc1C (stereo not drawn)
Second: CC(=O)c1c(C)nc2ccccc2c1N
The melting point of the first is lower: 77 to 79 °C for the first, 152 to 154 °C for the second.

Compared with `O=C(O)c1cc([N+](=O)[O-])cn1Cc1sccc1Br`, `CS(=O)(=O)c1cc(C(=O)O)cc([N+](=O)[O-])c1` is higher in melting point: 190 to 192 °C for the first, 229 to 231 °C for the second.

Compared with `Cc1ccc(N(C(=O)CCl)C2C=CS(=O)(=O)C2)cc1` (stereo not drawn), `Cc1cc(C(=O)CCl)c(C)n1Cc1ccccc1` is lower in melting point: 118 to 120 °C for the first, 64 to 68 °C for the second.

First: CC(C)Oc1ccc(/C=C/C(=O)O)cc1
Second: CC(Oc1cccc(C#N)c1)C(=O)O (stereo not drawn)
The melting point of the first is higher: 156 to 158 °C for the first, 110 to 112 °C for the second.

Compared with `CC(C)CC(N)c1nnn[nH]1` (stereo not drawn), `CCOC(=O)c1oc(NC)nc1C` is lower in melting point: 272 to 274 °C for the first, 103 to 105 °C for the second.

First: CCNC(=O)c1cc(Cl)ccc1N
Second: Cc1ccc(NCCC(=O)O)cc1Cl
The melting point of the first is higher: 122 to 124 °C for the first, 80 to 82 °C for the second.

First: N#Cc1cccn2ccnc12
Second: N#Cc1oc2ccccc2c1O
The melting point of the first is higher: 169 to 171 °C for the first, 138 to 140 °C for the second.

First: O=C(CCl)Nc1nnc(-c2ccco2)o1
Second: O=C(CCl)Nc1ccccc1-c1ccccc1
The melting point of the first is higher: 194 to 196 °C for the first, 103 to 106 °C for the second.

First: COc1ccccc1Nc1nc(N)nc(CCl)n1
Second: COc1ccccc1NS(=O)(=O)c1cc(N)ccc1N1CCOCC1
The melting point of the first is lower: 160 to 162 °C for the first, 197 to 199 °C for the second.

Compared with `O=C(CC(=O)NCC1CCCO1)NCC1CCCO1` (stereo not drawn), `O=C(O)CC1CCCCO1` (stereo not drawn) is lower in melting point: 77 to 79 °C for the first, 49 to 51 °C for the second.

Compared with `O=C(O)CCSc1ccc2c(c1)OCCCO2`, `O=C(O)CSCC(=O)c1ccc(Cl)cc1` is higher in melting point: 63 to 65 °C for the first, 81 to 83 °C for the second.

Compared with `O=S(=O)(Cl)c1cnc2ccsc2c1`, `Cc1cc([N+](=O)[O-])c(S(=O)(=O)Cl)cc1C` is lower in melting point: 129 to 131 °C for the first, 79 to 81 °C for the second.

Compared with `O=Cc1ccc(OCc2ccccn2)cc1`, `N#Cc1ccc(Oc2ccc(O)cc2)cc1` is higher in melting point: 88 to 90 °C for the first, 148 to 150 °C for the second.

First: CC(NC(=O)C1CCOCC1)C(=O)O (stereo not drawn)
Second: CNC(=O)C1CNCCO1 (stereo not drawn)
The melting point of the first is higher: 178 to 180 °C for the first, 93 to 95 °C for the second.

Compared with `CC(NC(N)=O)C12CC3CC(CC(C3)C1)C2` (stereo not drawn), `CC1CCCN(C(N)=S)C1` (stereo not drawn) is lower in melting point: 159 to 161 °C for the first, 103 to 105 °C for the second.

Compared with `COc1ccccc1C(C)NC(=O)C(C)Cl` (stereo not drawn), `CC(C)(Cc1ccccc1)NC(=O)OC(C)(C)C` is lower in melting point: 109 to 111 °C for the first, 51 to 53 °C for the second.

First: O=C(O)c1cccc(S(=O)(=O)CC(F)(F)F)c1
Second: Nc1cc(C(=O)O)cc(C(F)(F)F)c1
The melting point of the first is higher: 192 to 194 °C for the first, 141 to 146 °C for the second.

First: O=C(O)Cc1ccc(-n2cccc2)cc1
Second: CC(=CC(=O)O)c1ccccc1
The melting point of the first is higher: 171 to 173 °C for the first, 93 to 95 °C for the second.

Compared with `CC1(C)NC(=O)N(CCBr)C1=O`, `O=C1NC(=O)N(C2CC2)C1=O` is higher in melting point: 97 to 99 °C for the first, 115 to 117 °C for the second.

Compared with `CC(C)CN1C(=O)c2ccccc2N2C(=O)CCC12C(=O)O` (stereo not drawn), `CCOc1ccc2c(c1)NC(=O)C2=O` is higher in melting point: 105 to 107 °C for the first, 226 to 228 °C for the second.

First: O=[N+]([O-])c1ccc(F)cc1NC1CC1
Second: O=C(O)c1cc(Cl)c([N+](=O)[O-])[nH]1
The melting point of the first is lower: 69 to 71 °C for the first, 236 to 238 °C for the second.

First: N=c1nc(S)ss1
Second: Cc1cc(C(=O)Cl)sc1C
The melting point of the first is higher: 192 to 196 °C for the first, 59 to 61 °C for the second.

First: O=C1c2ccc([N+](=O)[O-])cc2C(=O)N1c1ccncc1
Second: Cc1cccn2cc(COc3ccc(F)cc3Cl)nc12
The melting point of the first is higher: 259 to 261 °C for the first, 128 to 130 °C for the second.

First: CC(C)(C)Nc1ccc(C(=O)O)cc1S(=O)(=O)NC(C)(C)C
Second: CN(C)C(C)(C(=O)O)c1ccc(F)cc1 (stereo not drawn)
The melting point of the first is higher: 243 to 245 °C for the first, 234 to 236 °C for the second.

Compared with `CC(C)(C)OC(=O)N1CCC(OCC(F)(F)F)(C(=O)O)CC1`, `CCNC(=O)OCC(F)(F)F` is lower in melting point: 259 to 261 °C for the first, 27 to 29 °C for the second.

Compared with `N#Cc1ccc(O)c(N)c1`, `CN(C)C(=O)c1ccnc(N)c1` is higher in melting point: 149 to 151 °C for the first, 196 to 198 °C for the second.

Compared with `CSc1ccsc1C(=O)O`, `CNC(C(=O)O)c1cc(F)c(F)c(F)c1` (stereo not drawn) is higher in melting point: 194 to 196 °C for the first, 247 to 249 °C for the second.

First: O=C(O)C1CCCN(S(=O)(=O)c2ccc(Br)s2)C1 (stereo not drawn)
Second: NC(=NO)c1ccc(N2CCCCC2)cc1
The melting point of the first is lower: 157 to 159 °C for the first, 169 to 171 °C for the second.

First: O=C(NCC1CCCC1)n1ccnc1
Second: O=C(c1ccc(Cl)c(Cl)c1)N1CCNCC1
The melting point of the first is lower: 61 to 63 °C for the first, 74 to 76 °C for the second.

First: Ic1nnc(-c2ccccc2)s1
Second: C1=CCC(c2nc3ccccc3[nH]2)CC1 (stereo not drawn)
The melting point of the first is lower: 105 to 107 °C for the first, 209 to 211 °C for the second.

First: CS(=O)(=O)NC1(C(=O)O)CCCCC1
Second: NC(=O)NC(=O)CCl
The melting point of the first is lower: 114 to 116 °C for the first, 181 to 183 °C for the second.

Compared with `NC(=O)c1cccc2[nH]ccc12`, `Nc1ccc(NC(=O)c2ccccc2F)cc1C(F)(F)F` is lower in melting point: 138 to 140 °C for the first, 124 to 126 °C for the second.

First: OCc1cc(Cl)cc2c1OCC2
Second: O=C(O)c1ccc(-n2cncn2)nc1
The melting point of the first is lower: 97 to 99 °C for the first, 341 to 343 °C for the second.

Work on `COc1c(C(=O)O)c(C)nn1C` yielded a melting point of 172 to 174 °C.
